In a melting point compilation (Tetko et al.; mined from patent text by program, amines drawn as free bases though some values may be those of a salt):

Compound	melting point [°C]
COc1ccc2[nH]cc(C(C)N3CCCCC3=O)c2c1 (centres undefined)	150
COc1ccc(C2=NO[C@](CO)(CCO)C2)cc1OC1CCCC1	108 to 109
Cn1ccnc1Sc1ccc(Nc2c(C#N)cnc3cc(-c4ccc(CN5CCOCC5)nc4)ccc23)cc1Cl	233 to 235
CSCC[C@H](NC(=O)Cc1cc(F)cc(F)c1)C(=O)N[C@@H]1C(=O)Nc2ccccc2S[C@@H]1c1ccccc1	85 to 90
O=c1ccc(C(c2ccccc2)c2ccccc2)c[nH]1	174 to 176
FC(F)(F)c1ccc(-c2cc(Nc3ccc4ccc(Cl)nc4c3)ncn2)cc1	233
[N-]=[N+]=N[C@@H]1CN2C(=O)N(c3cc(Cl)nc(Cl)c3)C(=O)[C@@]2(Cc2ccc(OC(F)(F)F)cc2)C1	140
COc1cc(C2CCN(C[C@@H](O)CO)CC2)ccc1-c1nc2c(N[C@H]3[C@@H](C(N)=O)[C@@H]4C=C[C@H]3C4)c(Cl)cnc2[nH]1	209 to 211
COc1ccc(CNc2nnc(-n3ccnc3)c3ccc(Cl)cc23)cc1Cl	221 to 222
O=C(OC(=O)c1cn(-c2ccccc2)nc1-c1ccc([N+](=O)[O-])o1)c1cn(-c2ccccc2)nc1-c1ccc([N+](=O)[O-])o1	262 to 264
N#CCC(c1ccccn1)c1cc(N)cc2c1OCC2 (centres undefined)	143 to 144
CCc1ccc(Oc2ccc([C@@H]3CCCN4CCS(=O)(=O)N=C34)cc2)cc1	152 to 153
Cc1cccc(-c2n[nH]cc2-c2ccc(F)c(-c3c[nH]c(C(C)(C)O)n3)c2)n1	135 to 137
Cc1noc(C2CCCCC2=O)n1 (centres undefined)	74 to 76
CC(C)Cc1nc2c(C(F)(F)F)cccc2c(O)c1C(=O)O	200
CCCc1n[nH]c(C(N)=O)c1N	196 to 201
N#Cc1cnc2c(Br)csc2c1Cl	176 to 178
COc1ccc(CNc2ncnc3c2ncn3C2OC(c3nnn[nH]3)C(O)C2O)cc1 (centres undefined)	210 to 211
CCCOc1cnc(CN)cc1O	159 to 160
CCOC(=O)c1cnc2c(C)csc2c1Cl	113 to 115
COc1ccc(N2CCCn3c2nc2c(Cl)ccc(C(OCC(F)(F)F)C4CC4)c23)c(C)n1 (centres undefined)	158 to 160
CC1(C)C(C=C(Br)Br)C1C(=O)OCc1cccc(Oc2ccccc2)c1 (centres undefined)	93
N#Cc1c(F)ccc(O)c1F	119 to 121
O=c1c2c(Cl)cc(Cl)cc2n(Cc2ccccc2)c(=O)n1Cc1ccc(Cl)cc1	161 to 165
CCN(c1ccc(N2CCN(c3ccc(O)cc3)CC2)cc1)c1nccs1	215

Compound	melting point [°C]
CC(C)CCCC(C)Cc1nc2c3ccsc3c3sccc3c2nc1CC(C)CCCC(C)C (centres undefined)	57.5 to 58.7
CC(C)(C)OC(=O)NCC(CNC(=O)OC(C)(C)C)OS(C)(=O)=O	127
CN(C)C=Cc1nc2ccc(F)cc2c(=O)n1-c1ccccc1Cl	210 to 211
CN1CC(CCN2CCN(c3ccccc3F)CC2)OC1=O (centres undefined)	80 to 82
CCn1c(=O)c2c(nc(/C=C/c3cccc(OC)c3OC)n2C)n(CC)c1=O	195 to 196
CCCCCCCCCCCc1cc2ccc(C(=O)OCCCC)cc2[nH]1	73 to 76
CCn1cc(C(=O)O)c(=O)c2cc(F)c(N3CCN(C)C(c4cc5cc(Cl)ccc5o4)C3)cc21 (centres undefined)	248 to 249
CC1(C)N=C(c2ccccc2Cl)c2cc([N+](=O)[O-])ccc2-n2cnnc21	262
O=C1C(c2ccccc2)=C(c2ccccc2)C(=O)N1Cc1ccc(F)cc1	124 to 125
CCOC(=O)c1cn(-c2cc(OC)c(F)cc2F)c2c(C)c([N+](=O)[O-])c(F)cc2c1=O	248 to 250
CCOC(=O)CCCCc1ccc2c(c1)C[C@@H](NC(=O)OC(C)(C)C)CC2	65 to 67
CC1(C)C2CCC1(CNC(=O)CBr)CC2	89
Cc1cccc2c(Cl)cc(C(F)(Cl)Cl)nc12	90 to 94
CCCc1c(OCCCCCOc2ccc3c(c2CCC)OC(C(=O)O)CC3)ccc(CC)c1O (centres undefined)	101 to 102
CCCc1c(C(=O)C(C)C)c2ccc(C(=O)OC)cc2n1Cc1c(Cl)cccc1Cl	130 to 132
CCc1nc2c(N)nc3cccnc3c2n1CC1(O)CCN(S(C)(=O)=O)CC1	> 255
CCCN1CCC23c4cccc(OC)c4OC2C2CCC3(C1)C(COC)C2 (centres undefined)	130 to 131
Oc1ccc2c(c1)CCCC(c1ccccc1)=C2c1ccc(OCCCCCSCc2ccco2)cc1	171
CC(=O)OC1CSC(Oc2cccc(-c3cc(C)ccn3)c2)C(OC(C)=O)C1OC(C)=O (centres undefined)	116
CC(C)=CCC/C(C)=C/COCC(=O)c1cc(C(C)(C)C)c(O)c(C(C)(C)C)c1	50
CN1C(=O)c2ccccc2N=C(NCCc2ccccc2)C1c1ccccc1 (centres undefined)	173 to 174
CCOC(=O)C1=C(C)NC(CSCO)=C(C(=O)OCC)C1c1cccc([N+](=O)[O-])c1 (centres undefined)	113 to 114
CC1C(=C[N+](=O)[O-])Nc2ccc(Cl)cc2C(c2ccccc2F)=[N+]1[O-] (centres undefined)	198 to 200
COc1ccc2c(c1)c(CCc1cc(=O)n(C3CCCCC3)[nH]1)c(C)n2C(=O)c1ccc(Cl)cc1	110
CCC(CC)n1nc(C)c2c(Cl)nc(C)nc21	33 to 34

The next lines start with the values.

melting point [°C]	Compound
58 to 60	N#Cc1ccc(C(=O)N2C[C@H](OCc3ccccc3)C[C@H]2C(=O)O)cc1
140	CNC(=O)c1ccccc1CC(O)(CCN(C)C)c1ccccc1 (centres undefined)
214 to 216	CS(=O)(=O)Nc1cc2oc(NC=O)cc(=O)c2cc1Oc1ccccc1
123 to 128	CCc1ccc([N+](=O)[O-])cc1CNC(C)=O
101 to 103	CCC(CC)NC(=O)c1ccc(-c2scc(-c3ccccc3Cl)c2CC(=O)O)cc1
173 to 174	O=[N+]([O-])c1ccc(/C=C/c2ccc(Cl)c(C(F)(F)F)c2)cc1
235 to 237	Cn1ccc2cc(N3Cc4ccc(Br)cc4C3=O)ccc21
176 to 178	CC1(C)N=C(S)N=C(NC(=O)c2ccccc2)N1
135 to 136	COC(=O)COc1ccc(C(=O)CN)cc1
101	COC(=O)C(=CN(C)C)N(C)c1cccc(-c2ccc(Cl)cc2)n1
209 to 210	COP(=O)(Cc1ccc(NC(=O)/C=C/c2cnn(C)c2-c2ccc(F)cc2)cc1)OC
190 to 191	CCOc1ncc(NC(=O)Nc2c(CC)cccc2CC)c(-c2ccccc2Cl)n1
179 to 180	Cn1c2ccccc2c2cc(C(=O)O)sc21
259 to 261	Nc1cc(-n2cncn2)ccc1[N+](=O)[O-]
80 to 85	CCOC(=O)c1cc(=O)c2c(OCC(O)COc3ccc(CC)cc3)cccc2o1 (centres undefined)
130 to 134	O=C(CP(=O)(O)O)NCc1ccccc1
186 to 188	CC(=O)NC[C@H]1CN(c2ccc(N3CCC(n4cc(C(F)F)nn4)CC3)c(F)c2)C(=O)O1
79.5 to 83	Cc1cc(C=O)ccc1C(=O)NCc1ccccn1
96	O=C(Nc1ccc2c(c1)CC(NS(=O)(=O)c1ccccc1)C2)c1ccccc1-c1ccc(C(F)(F)F)cc1 (centres undefined)
111 to 112	COC(=O)Oc1ccc([N+](=O)[O-])cc1
> 360	Nc1nc(N)c2nc(CNc3ccc(Cl)cc3)cnc2n1
149 to 150	COc1ccc(CCC(=O)Nc2cc3c(c(C)c2C)OC(C)(C)C3c2ccc(C)cc2)cc1 (centres undefined)
114	CC(C)(c1ccccc1)c1ccc(OCC(=O)O)c(C(C)(C)c2ccccc2)c1
115 to 117	O=C(NCc1ccccc1)c1sc2ccccc2c1Br
150	COCCN1CCn2c1nc(C(=O)NCc1ccc(F)cc1)c(OCc1ccccc1)c2=O

melting point [°C]	Compound
> 300	Cc1ccc(-c2csc(NC(=O)Nc3nc(-c4ccc(C)cc4)cs3)n2)cc1
185 to 186	CC1=C(C(=O)c2ccc(C#N)cc2)C(=O)C2C=CC=CC2C1=O (centres undefined)
167 to 168	[N-]=[N+]=Nc1cc(Oc2ccc3c(c2)CCN3C(=O)Nc2cccc(C(F)(F)F)c2)ncn1
58.1 to 58.3	CCOc1ccc(-c2nc(CCC(=O)OC)cs2)cc1OCC
191 to 193	COc1ccc2c(c1OC)CCC(NC(=O)CCCCC(=O)NCCc1ccccc1)C2 (centres undefined)
156 to 158	CC(C)(C)OC(=O)NCC(=O)Nn1cccc1C(=O)c1ccccc1Cl
257 to 260	CCOC(=O)c1cnc2cc(CC)ccc2c1O
81 to 82	Cc1c(NCCNCC(O)COc2ccccc2)n(C)c(=O)n(C)c1=O (centres undefined)
108 to 110	COc1ccc(C(C[N+](=O)[O-])SC(=S)N(C)C)cc1OC (centres undefined)
105 to 109	O=C(CCn1ccnc1)c1ccc(Cl)cc1Cl
256 to 257	Cc1cc(C)n(-c2ccc(C(N)=O)nn2)n1
70 to 74	CC(=O)C(=Cc1ccc(Br)s1)C(C)=O
126 to 128	O=C(O)C(=O)c1ccc(CCCNC(=O)c2ccc3ccccc3c2)cc1
117 to 119	COC(=O)CCCc1ccc(OCCN(C)c2nc3ccccc3o2)cc1
138 to 141	O=C(O)c1ccc(-c2ccc(F)cc2)cc1
181	O=C(Nc1cccnc1S(=O)(=O)c1ccccc1)N[C@@H](Cc1ccc(NC(=O)c2c(Cl)cccc2Cl)cc1)C(=O)O
> 300	N=C(N)c1ccc(-c2cnc(-c3ccc(C(=N)N)cc3)nc2)cc1
163 to 165	O=C(CNC(=O)OCc1ccc([N+](=O)[O-])cc1)Nc1ccc(C(=O)OCCl)cc1
120 to 122	CCOC(=O)c1[nH]cc(Cc2cccc(F)c2C)c1-c1ccccc1
308 to 310	Cc1cc(-c2ccc(Cl)cc2)nc2c(C(=O)Nc3cccc(S(N)(=O)=O)c3)cnn12
116 to 118	C=CCS(=O)(=O)c1ccc(NC(C)=O)cc1
153 to 155	Cc1ccc(O)c(Cn2ccnc2)n1
173 to 174	C[C@@H]([C@H](O)c1ccc(O)cc1)N1CCC(O)(Cc2ccccc2)CC1 (relative stereo)
188 to 189	O=C1NC(=O)C(c2cccc3ccccc23)O1 (centres undefined)
